How the values were obtained:
RAW264.7 [1] = assay: Cytotoxicity against mouse RAW264.7 cells at 20 uM measured after 24 hrs; format: cell-based; conditions: raw264.7, 24 h
L02 = assay: Antiinflammatory activity against human L02 assessed as inhibition of LPS-induced NO production preincubated for 1 hrs followed by LPS stimulation and measured after 24 hrs by Griess assay relative to control; format: functional, cell-based
RAW264.7 [2] = assay: Antiinflammatory activity against mouse RAW264.7 cells assessed as inhibition of LPS-induced NO production at 10 uM preincubated for 1 hrs followed by LPS stimulation and measured after 24 hrs by Griess assay relative to control; format: functional; conditions: time 25 hrs

Structure (SMILES) | Activity (RAW264.7 [1]) | IC50 (L02) [µM] | inhibition at 10 µM (RAW264.7 [2]) [%]
CC(C)c1ccc(Nc2nc(/C=C/c3ccco3)nc3ccsc23)cc1 | Non-Toxic | > 1000 | 31.7
CCCc1nn(C)c2c(NCCc3cccc(Cl)c3)nc(/C=C/c3nc(C)c(C)nc3C)nc12 | Non-Toxic | 786 | 68.8
CCCc1nn(C)c2c(NCc3ccc(F)cc3)nc(/C=C/c3nc(C)c(C)nc3C)nc12 | Non-Toxic | > 1000 | 63.4
CCCc1nn(C)c2c(N3CCOCC3)nc(/C=C/c3ccc[n+]([O-])c3)nc12 | Non-Toxic | 817 | 20.8
CCCc1nn(C)c2c(NCCc3cccc(Cl)c3)nc(/C=C/c3ccc[n+]([O-])c3)nc12 | Non-Toxic | 162 | 37.5
CCCc1nn(C)c2c(NC(C)C)nc(CCc3cccnc3)nc12 | Non-Toxic | 514 | 30.2
COc1cc(/C=C/c2nc(NCCc3ccccc3)c3sccc3n2)cc(OC)c1OC | Non-Toxic | < 40 | 46.2
Clc1ccccc1CNc1nc(/C=C/c2ccccc2)nc2ccsc12 | Non-Toxic | > 1000 | 35.2
FC(F)(F)c1ccc(Nc2nc(/C=C/c3ccccc3)nc3ccsc23)cc1 | Non-Toxic | > 1000 | 30.1
CNc1nc(/C=C/c2ccco2)nc2ccsc12 | Non-Toxic | 811 | 29.1
COc1ccc(Nc2nc(/C=C/c3ccccc3)nc3ccsc23)cc1 | Non-Toxic | > 1000 | 21.9
COc1cc(/C=C/c2nc(O)nc(NCCc3ccc(F)cc3)n2)cc(OC)c1OC | Non-Toxic | 483 | 36.5
CCCc1nn(C)c2c(NCCc3ccccc3)nc(CCc3cccnc3)nc12 | Non-Toxic | 783 | 36.5
COc1cc(/C=C/c2nccc(NC(C)C)n2)cc(OC)c1OC | Non-Toxic | < 40 | 61
CCCc1nn(C)c2c(N3CCOCC3)nc(CCc3cccnc3)nc12 | Non-Toxic | 859 | 27.1
CN(c1ccccc1)c1nc(/C=C/c2ccccc2)nc2ccsc12 | Non-Toxic | > 1000 | 24.9

Structure (SMILES) | Activity (RAW264.7 [1]) | IC50 (L02) [µM] | inhibition at 10 µM (RAW264.7 [2]) [%]
CN(C)c1nc(/C=C/c2ccccc2)nc2ccsc12 | Non-Toxic | > 1000 | 3.57
COc1cc(/C=C/c2nc(NC(C)C)c3sccc3n2)cc(OC)c1OC | Non-Toxic | > 1000 | 59.1
COc1cc(/C=C/c2nc(O)nc(NCCc3ccccc3)n2)cc(OC)c1OC | Non-Toxic | < 40 | 57
CCCc1nn(C)c2c(NC(C)C)nc(/C=C/c3cccnc3)nc12 | Non-Toxic | 574 | 74.2
COc1cc(/C=C/c2nc(Cl)cc(NCCc3ccccc3)n2)cc(OC)c1OC | Non-Toxic | < 40 | 31.2
COc1cc(/C=C/c2nccc(NCCc3ccc(F)cc3)n2)cc(OC)c1OC | Non-Toxic | 544 | 47
COc1cc(/C=C/c2nc(O)nc(NC(C)C)n2)cc(OC)c1OC | Non-Toxic | < 40 | 34
Fc1ccc(CNc2nc(/C=C/c3ccccc3)nc3ccsc23)cc1 | Non-Toxic | > 1000 | 23.4
CCCc1nn(C)c2c(NC3CC3)nc(/C=C/c3nc(C)c(C)nc3C)nc12 | Non-Toxic | 706 | 48.4
CCCc1nn(C)c2c(NCCc3ccccc3)nc(/C=C/c3ccc[n+]([O-])c3)nc12 | Non-Toxic | 392 | 72.9
C(=C\c1ccco1)/c1nc(NCc2ccccc2)c2sccc2n1 | Non-Toxic | > 1000 | 64.1
Brc1ccc(CNc2nc(/C=C/c3ccccc3)nc3ccsc23)cc1 | Non-Toxic | > 1000 | 19.5
CCCc1nn(C)c2c(NCCc3ccccc3)nc(/C=C/c3nc(C)c(C)nc3C)nc12 | Non-Toxic | < 40 | 52.7
C(=C\c1nc(Nc2ccccc2)c2sccc2n1)/c1ccccc1 | Non-Toxic | > 1000 | 21
Clc1ccc(CNc2nc(/C=C/c3ccco3)nc3ccsc23)cc1 | Non-Toxic | > 1000 | 13
Fc1ccc(CNc2nc(/C=C/c3ccco3)nc3ccsc23)cc1 | Non-Toxic | > 1000 | 59.2

— ChEMBL document CHEMBL4813945, “Discovery and development of novel pyrimidine and pyrazolo/thieno-fused pyrimidine derivatives as potent and orally active inducible nitric oxide synthase dimerization inhibitor with efficacy for arthritis” (Eur J Med Chem, 2021)
